According to patent US20060041022A1, “Treatment of amyotrophic lateral sclerosis with nimesulide” (priority 2002, published 2006):
Like-named read-outs stand apart in the source and are kept apart here.

Assays:
SOD1 mutant mice [1] = tested on: SOD1 mutant mice
Procedure: (§1) Mice Studies were performed on 8 week old female mice overexpressing mutated human superoxide dismutase (codon 93 glycine→alanine G93A (TgN[SOD1-G93A]1Gur(Gurney et al., 1994, Science 264(5166):1772-1775) Jackson Laboratory, Bar Harbor, Me.; “SDO1 mice”) and their wild type littermates. Mice were housed on a 12 hour day/light cycle and (beginning at 45 d of age) allowed ad libitum access to either nimesulide (NMS)-supplemented (19 g/10 kg) chow, delivering ˜[…] per day to the animal, or, as a control, plain NIH-07 formula cold press chow processed into identical ½ inch pellets (Zeigler Bros Inc, Garners, Pa.). Genotyping was conducted at 21 days of age as described in Gurney et al., 1994, Science 264(5166):1772-1775.
(§2) Rotarod and Grid Walking Tests. To assess balance, coordination and muscle strength mice were tested on the accelerating rotarod (7650 Ugo Basile Biol. Res. App., Italy) and grid walking tests. […] For the grid walking test, animals were placed into the distal end of a walled chamber (15 cm W×60 cm L, 20 cm high walls and a wire mesh bottom) suspended 1 meter above the floor. The number of foot misses (entire paw and portion of limb pokes through the wire mesh) while crossing a distance of 60 cm was recorded.

SOD1 mutant mice [2] = tested on: SOD1 mutant mice; remark: listed apart in the source
Procedure: as §1, §2

[3] = for effect on weight: SOD1 or wild type mice, nimesulide diet vs normal diet, weighed weekly
Procedure: as §1
Health/Neurologic Status. To assess health status mice were weighed weekly and examined for changes in lacrimation/salivation, palpebral closure, ear twitch and pupillary responses, whisker orienting, postural and righting reflexes and Body Condition Score (BCS) (Ullman-Cullere 1999). Finally, a general pathological examination was conducted at time of sacrifice.

in vivo = conditions: for Kp: female, mouse, brain (cerebral cortex parenchyma) relative to serum, oral
Procedure: as §1
(§3) Pathology examination. To evaluate molecular changes during the period of therapeutic efficacy of NMS, a sub group of mice were sacrificed by cervical dislocation 95-105 d of age. Blood, brain and lumbar spinal cord samples were then rapidly harvested and prepared for analysis.
Nimesulide and Prostaglandin E2. […] Prostaglandin-E2 expression in the left caudal hemisphere of the brain (including substantia nigra, and motor cortex) was measured by immuno-assay (Cayman Ann Arbor, Mich.), which was performed as follows. Briefly, pulverized brain tissue stored in liquid N2 was homogenized in 0.1M phosphate-buffered saline (containing 1 mM EDTA and 10 μM indomethacin), mixed with an equal volume of ethanol, and centrifuged. The supernatant was diluted with 50 mM acetic buffer and purified through an affinity column (Cayman). The column was equilibrated with column buffer (0.1M phosphate-buffered saline, 7.7 mM NaN3, 0.5 M […]) followed by UltraPure water, the supernatant was then eluted from the 4 ml column by adding the elution solution and allowing it to pass through the packing material. The eluate was then evaporated and re-dissolved in enzyme-linked immunoassay buffer, applied to a 96-well plate pre-coated with goat anti-mouse IgG and incubated with PGE2 monoclonal antibody and (recovery tracer) for 18 hr at 4° C. […]

Prostaglandin E2 = conditions: SOD1 (or WT) mice, prophylactic nimesulide in the diet, FIG. 4B
Procedure: as §1, §3
Nimesulide and Prostaglandin E2. […] Prostaglandin-E2 expression in the left caudal hemisphere of the brain (including substantia nigra, and motor cortex) was measured by immuno-assay (Cayman Ann Arbor, Mich.), which was performed as follows. […]

[4] = tested on: 4.8 kDa protein (also 5.3 and 5.7 kDa proteins) in spinal cord of SOD1 mice
Procedure: as §1, §3

[5] = geriatric patients, periods greater than two years; cited from earlier work
[6] = SOD1 mice on NMS diet, control diet mean onset at 108 days

SMILES: CS(=O)(=O)Nc1ccc([N+](=O)[O-])cc1Oc1ccccc1 [nimesulide, 4-nitro-2-phenoxymethanesulfonanilide]
- onset of impairment relative to untreated counterparts (SOD1 mutant mice [1]; NMS-treated SOD1 mice, rotarod and grid walking tests): significant delay
- age until which motor skill integrity was exhibited (SOD1 mutant mice [1]; [6]): 120 days of age
- delay in the onset of motor impairment (SOD1 mutant mice [1]; SOD1 mice, nimesulide-supplemented chow vs control diet, n=6, P<0.05, FIG. 1): 10 days
- age until which motor skill integrity was exhibited (SOD1 mutant mice [2]; [6]): 124 days of age
- motor ability maintained beyond SOD1 mice fed control diet (SOD1 mutant mice [2]; SOD1 mice, nimesulide diet, n=6, P<0.05 on days 113, 115, 122, 124, FIG. 2): 10 days
- effect on weight [3]: No detectable difference
- effect on weight ([3]; listed as NMS): no effect
- health/neurologic tests ([3]; all groups, SOD1 groups showed decreased BCS and impaired reflexes after hind limb paralysis): unremarkable
- nimesulide concentration in serum (in vivo; delivery through feeding, 2-3 months treatment, at onset of bilateral hind-limb paralysis, FIG. 4A): approximately 30 μM
- Kp (in vivo; TgN[SOD1-G93A]1Gur (SOD1-G93A transgenic)): ~0.1
- Kp (in vivo): 0.1
- PG-E2 content (Prostaglandin E2): decreased
- level of approximately 4.8 kDa protein (negatively charged at pH 9) in spinal cord ([4]; SOD1 mice with NMS treatment, prior to onset of motor impairment, FIGS. 3A and B): regulated back to control levels
- levels of approximately 5.3 and 5.7 kDa proteins ([4]; SOD1 mice, lumbar spinal cord, proteins increase with disease progression): decrease
- tolerability [5]: well tolerated
